Test results published in patent US8557796B2, “Substituted 1-oxa-2,8-diaza-spiro [4,5] dec-2-ene derivatives and related treatment methods” (Gruenenthal GmbH, priority 2001, dated 2013).

Biological target: T1, 5HT-uptake (Rattus norvegicus, UniProt P31652)
T1 construct: synaptosomes from rat brain regions were freshly isolated; from tissue; host or cells: P2 synaptosome fraction from rat brain regions
Experiment: Serotonin uptake inhibition (5HT uptake) in synaptosomes
Type: biochemical
Conditions: rat brain synaptosomes

T1 sequence (P31652 whole entry): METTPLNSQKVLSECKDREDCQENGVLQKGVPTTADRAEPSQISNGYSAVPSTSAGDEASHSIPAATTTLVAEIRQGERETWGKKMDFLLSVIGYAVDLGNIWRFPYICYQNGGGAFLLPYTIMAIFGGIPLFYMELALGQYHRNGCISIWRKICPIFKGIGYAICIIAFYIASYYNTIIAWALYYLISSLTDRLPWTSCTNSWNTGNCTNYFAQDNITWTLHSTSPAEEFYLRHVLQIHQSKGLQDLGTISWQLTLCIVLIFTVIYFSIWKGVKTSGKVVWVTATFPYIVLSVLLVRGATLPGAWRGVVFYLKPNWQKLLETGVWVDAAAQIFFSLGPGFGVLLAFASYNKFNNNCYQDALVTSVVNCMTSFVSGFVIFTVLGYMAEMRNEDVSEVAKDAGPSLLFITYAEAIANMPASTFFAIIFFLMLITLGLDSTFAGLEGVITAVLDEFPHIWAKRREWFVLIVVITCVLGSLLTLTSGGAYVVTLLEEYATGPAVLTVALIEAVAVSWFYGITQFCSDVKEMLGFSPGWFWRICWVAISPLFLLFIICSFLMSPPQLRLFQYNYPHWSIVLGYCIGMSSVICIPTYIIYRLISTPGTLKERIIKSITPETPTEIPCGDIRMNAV

Row | Structure (SMILES) | inhibition at 10 µM | 5HT-uptake, 10 μM, % inhibition
1 | O=C(NC1CCN(Cc2ccc(C(F)(F)F)cc2)C1)C1=NOC2(CCN(S(=O)(=O)c3cccs3)CC2)C1 (stereo not shown) [Example 26, 8-(thiophene-2-sulphonyl)-1-oxa-2,8-diaza-spiro[4,5]dec-2-ene-3-carboxylic acid [1-(4-trifluoromethyl-benzyl)-pyrrolidin-3-yl]-amide] | 65% | 
2 | Cc1ccc(S(=O)(=O)N2CCC3(CC2)CC(C(=O)N(CCC#N)Cc2ccccc2)=NO3)cc1 [Example 28, 8-(toluene-4-sulphonyl)-1-oxa-2,8-diaza-spiro[4,5]dec-2-ene-3-carboxylic acid benzyl-(2-cyano-ethyl)-amide] | 43% | 
3 | Cc1ccc(S(=O)(=O)N2CCC3(CC2)CC(C(=O)NCCN(C)C)=NO3)cc1 [Example 57, 8-(toluene-4-sulphonyl)-1-oxa-2,8-diaza-spiro[4,5]dec-2-ene-3-carboxylic acid (2-dimethylamino-ethyl)-amide] | 41% | 
4 | CCCC(=O)N1CCC2(CC1)CC(C(=O)Nc1ccccc1)=NO2 [Example 85, 8-butyryl-1-oxa-2,8-diaza-spiro[4,5]dec-2-ene-3-carboxylic acid phenylamide] | 41% | 
5 | O=C(C1=NOC2(CCN(S(=O)(=O)c3cccc(C(F)(F)F)c3)CC2)C1)N1CCN(CCCc2ccccc2)CC1 [Example 83, [4-(3-phenyl-propyl)-piperazin-1-yl]-[8-(3-trifluoromethyl-benzenesulphonyl)-1-oxa-2,8-diaza-spiro[4,5]dec-2-en-3-yl]-methanone] | 52% | 
6 | CCOC(=O)N1CCC(NC(=O)C2=NOC3(CCN(C(=O)c4ccc(Br)cc4)CC3)C2)CC1 [Example 62, 4-{[8-(4-bromo-benzoyl)-1-oxa-2,8-diaza-spiro[4,5]dec-2-ene-3-carbonyl]-amino)-piperidine-l-carboxylic acid ethyl ester] |  | 73%
7 | Cc1ccc([N+](=O)[O-])cc1S(=O)(=O)N1CCC2(CC1)CC(C(=O)NCCN(C)C)=NO2 [Example 19, 8-(2-methyl-5-nitro-benzenesulphonyl)-1-oxa-2,8-diaza-spiro[4,5]dec-2-ene-3 carboxylic acid (2-dimethylamino-ethyl)-amide] | 80% | 
8 | Cc1cc(C(=O)N2CCC3(CC2)CC(C(=O)NCC(C)C)=NO3)ccc1Br [Example 88, 8-(4-bromo-3-methyl-benzoyl)-1-oxa-2,8-diaza-spiro[4,5]dec-2-ene-3-carboxylic acid isobutyl-amide] | 46% | 
9 | COc1cc(OC)cc(N2CCN(C(=O)C3=NOC4(CCN(S(=O)(=O)c5ccc(Cl)s5)CC4)C3)CC2)c1 [Example 71, [8-(5-chloro-thiophene-2-sulphonyl)-1-oxa-2,8-diaza-spiro[4,5]dec-2-en-3-yl]-[4-(3,5-dimethoxy-phenyl)-piperazin-l-yl]-methanone] |  | 43%
10 | CCOP(=O)(Cc1ccc(NC(=O)C2=NOC3(CCN(S(=O)(=O)Cc4ccccc4)CC3)C2)cc1)OCC [Example 2] |  | 55%
11 | COCCOCC(=O)N1CCC2(CC1)CC(C(=O)NCc1ccccc1)=NO2 [Example 87, 8-[2-(2-methoxy-ethoxy)-acetyl]-1-oxa-2,8-diaza-spiro[4,5]dec-2-ene-3-carboxylic acid benzylamide] | 40% | 
12 | C=CCOC(=O)C(CC(=O)OC(C)(C)C)NC(=O)C1=NOC2(CCN(S(=O)(=O)c3cc(Cl)ccc3Cl)CC2)C1 (stereo not shown) [Example 53] |  | 53%
13 | CCc1ccc(C(=O)N2CCC3(CC2)CC(C(=O)NCc2cccs2)=NO3)cc1 [Example 52, 8-(4-ethyl-benzoyl)-1-oxa-2,8-diaza-spiro[4,5]dec-2-ene-3-carboxylic acid (thiophen-2-ylmethyl)-amide] | 60% | 
14 | N#CCCN(Cc1cccnc1)C(=O)C1=NOC2(CCN(S(=O)(=O)c3cc(Cl)ccc3Cl)CC2)C1 [Example 99, 8-(2,5-dichloro-benzenesulphonyl)-1-oxa-2,8-diaza-spiro[4,5]dec-2-ene-3-carboxylic acid (2-cyano-ethyl)-pyridin-3-ylmethyl-amide] | 44% | 
15 | O=C(C1=NOC2(CCN(S(=O)(=O)c3cccc(C(F)(F)F)c3)CC2)C1)N1CCN(Cc2ccc3ccccc3c2)CC1 [Example 35, (4-naphthalen-2-ylmethyl-piperazin-l-yl)-[8-(3-trifluoromethyl-benzenesulphonyl)-1-oxa-2,8-diaza-spiro[4,5]dec-2-en-3-yl]-methanone] |  | 44%

Other lines, results leading:

Row | inhibition at 10 µM | 5HT-uptake, 10 μM, % inhibition | Structure (SMILES)
16 | 40% |  | O=C(C1=NOC2(CCN(S(=O)(=O)Cc3ccccc3)CC2)C1)N1CCN(c2ccc(Cl)cc2)CC1 [Example 46, [4-(4-chloro-phenyl)-piperazin-1-yl]-(8-phenylmethane-sulphonyl-1-oxa-2,8-diaza-spiro[4,5]dec-2-en-3-yl)-methanone]
17 | 42% |  | CCCCCC(=O)N1CCC2(CC1)CC(C(=O)NCC1CC1)=NO2 [Example 158, 8-hexanoyl-1-oxa-2,8-diaza-spiro[4,5]dec-2-ene-3-carboxylic acid cyclopropylmethyl-amide]
18 | 40% |  | CCN(CC)c1ccc(C(=O)NNC(=O)C2=NOC3(CCN(S(=O)(=O)c4cccs4)CC3)C2)cc1 [Example 10, 4-diethylamino-benzoic acid N′-[8-(thiophene-2-sulphonyl)-1-oxa-2,8-diaza-spiro[4,5]dec-2-ene-3-carbonyl]-hydrazide]
19 | 57% |  | O=C(NCC1CC1)C1=NOC2(CCN(S(=O)(=O)c3cccc(C(F)(F)F)c3)CC2)C1 [Example 94, 8-(3-trifluoromethyl-benzenesulphonyl)-1-oxa-2,8-diaza-spiro[4,5]dec-2-ene-3 carboxylic acid cyclopropylmethyl-amide]
20 |  | 47% | CCOC(=O)CCNC(=O)C1=NOC2(CCN(C(=O)c3c(Cl)ccc(C)c3F)CC2)C1 [Example 148]
21 | 51% |  | Cc1ccc(S(=O)(=O)N2CCC3(CC2)CC(C(=O)N2CCN(C(=O)Cc4ccccc4)CC2)=NO3)cc1 [Example 25, 2-phenyl-1-{4-[8-(toluene-4-sulphonyl)-1-oxa-2,8-diaza-spiro[4,5]dec-2-ene-3 carbonyl]-piperazin-1-yl)-ethanone]
22 | 43% |  | O=C(Nc1ccc2ccccc2c1)C1=NOC2(CCN(S(=O)(=O)c3ccc(OC(F)(F)F)cc3)CC2)C1 [Example 54, 8-(4-trifluoromethoxy-benzenesulphonyl)-1-oxa-2,8-diaza-spiro[4,5]dec-2-ene-3-carboxylic acid naphthalen-2-ylamide]
23 | 41% |  | CN(C)c1cccc(C(=O)N2CCC3(CC2)CC(C(=O)NCCC#N)=NO3)c1 [Example 43, 8-(3-dimethylamino-benzoyl)-1-oxa-2,8-diaza-spiro[4,5]dec-2-ene-3-carboxylic acid (2-cyano-ethyl)-amide]
24 | 41% |  | CN(C)S(=O)(=O)N1CCC2(CC1)CC(C(=O)NCc1ccc(F)cc1F)=NO2 [Example 77, 8-dimethylsulphamoyl-1-oxa-2,8-diaza-spiro[4,5]dec-2-ene-3-carboxylic acid 2,4-difluorobenzylamide]
25 | 70% |  | Cc1ccc(S(=O)(=O)NC(Cc2ccccc2)C(=O)N2CCC3(CC2)CC(C(=O)NCCC#N)=NO3)cc1 (stereo not shown) [Example 41, 8-[3-phenyl-2-(toluene-4-sulphonylamino)-propionyl]-1-oxa-2,8-diaza-spiro[4,5]dec-2-ene-3-carboxylic acid (2-cyano-ethyl)-amide]
26 |  | 48% | CCSCCNC(=O)C1=NOC2(CCN(C(=O)c3ccc(Br)cc3)CC2)C1 [Example 154]
27 | 52% |  | O=C(NCC1CC1)C1=NOC2(CCN(C(=O)c3cccc(Cl)c3Cl)CC2)C1 [Example 157, 8-(2,3-dichloro-benzoyl)-1-oxa-2,8-diaza-spiro[4,5]dec-2-ene-3-carboxylic acid cyclopropylmethyl-amide]
28 | 65% |  | O=C(NCc1cc(F)cc(C(F)(F)F)c1)C1=NOC2(CCN(S(=O)(=O)c3cc(Cl)ccc3Cl)CC2)C1 [Example 39, 8-(2,5-dichloro-benzenesulphonyl)-1-oxa-2,8-diaza-spiro[4,5]dec-2-ene-3-carboxylic acid 3-fluoro-5-trifluoromethyl-benzylamide]
29 |  | 45% | COc1ccc(C(=O)N2CCC3(CC2)CC(C(=O)NCc2ccc(C)o2)=NO3)cc1 [Example 59]
30 |  | 44% | CCSCCNC(=O)C1=NOC2(CCN(S(=O)(=O)N(C)C)CC2)C1 [Example 161]
31 | 40% |  | CCOC(=O)CCNC(=O)C1=NOC2(CCN(S(=O)(=O)CC34CCC(CC3=O)C4(C)C)CC2)C1 (stereo not shown) [Example 66, 3-{[8-(7,7-dimethyl-2-oxo-bicyclo[2.2.1]hept-1-ylmethane-sulphonyl)-1-oxa-2,8-diaza-spiro[4,5]dec-2-ene-3-carbonyl]-amino]-propionic acid ethyl ester]
32 | 49% |  | CCOc1ccccc1CNC(=O)C1=NOC2(CCN(S(=O)(=O)Cc3ccccc3)CC2)C1 [Example 51, 8-phenylmethanesulphonyl-1-oxa-2,8-diaza-spiro[4,5]dec-2-ene-3-carboxylic acid 2-ethoxy-benzylamide]
33 | 65% |  | O=C(NCCc1ccc(Cl)cc1)C1=NOC2(CCN(S(=O)(=O)c3cccs3)CC2)C1 [Example 60, 8-(thiophene-2-sulphonyl)-1-oxa-2,8-diaza-spiro[4,5]dec-2-ene-3-carboxylic acid [2-(4-chlorophenyl)-ethyl]-amide]
34 | 42% |  | CCCS(=O)(=O)N1CCC2(CC1)CC(C(=O)NCC(C)C)=NO2 [Example 82, 8-(propane-1-sulphonyl)-1-oxa-2,8-diaza-spiro[4,5]dec-2-ene-3-carboxylic acid isobutyl-amide]
35 |  | 43% | N#CCCN(CC1CCCO1)C(=O)C1=NOC2(CCN(S(=O)(=O)c3cc(Cl)ccc3Cl)CC2)C1 (stereo not shown) [Example 100]
36 |  | 42% | O=C(C1=NOC2(CCN(S(=O)(=O)c3cc(Cl)ccc3Cl)CC2)C1)N1CCN(c2ncnc3sccc23)CC1 [Example 29]
37 | 55% |  | CN(C)S(=O)(=O)N1CCC2(CC1)CC(C(=O)NCCc1ccc(Cl)cc1)=NO2 [Example 58, 8-dimethylsulphamoyl-1-oxa-2,8-diaza-spiro[4,5]dec-2-ene-3-carboxylic acid [2-(4-chlorophenyl)-ethyl]-amide]
